Counter-ions that a name gives are not always drawn.
Tests used:
[1] = system: C51 murine adenocarcinoma; experiment: Assessment of the tumor necrosis in vivo; conditions: intravenous injection, 24 hours after treatment, female BALB/c mice
Source text: Mice are bred by IFFA-CREDO (Domaine des Oncins, 69210 L'Arbresle, France) from a race obtained by Jackson Laboratories, Bar Harbor, Me., USA, or by Charles River France (76410 St Aubin les Elbeuf, France) from a race obtained by Charles River, USA. The mice initially weigh more than 18 g at the start of the test. They have free access to food (UAR reference 113, Villemoisson, 91160 Epinay sur Orge, France) and water.
The tumors used are currently transplanted in our laboratories. All these tumors are at the Frederick Cancer Research Facility (Frederick, Md., USA) in the frozen tumor deposit of the National Cancer Institute (NCl) or at the American Type Culture Collection (ATCC, Rockville, Md., USA).
The tumor transplantation techniques, the chemotherapy and the data analysis are presented in detail (Corbett et al. 1982a; Corbett et al., 1982b).
To summarize, the animals required for an experiment are assembled and implanted bilaterally on day 0 (zero).
The growth of the solid tumors develops freely up to the desired size. The mice are then treated by intravenous injection of a test compound in solution.
The sampling of tumors is usually (but not necessarily) carried out 24 hours after the treatment.
The mice are killed by […]. The implanted tumors, along with the skin covering them and the neighboring tissues, are collected and stored in 10% formaldehyde (v/v) (Carlo Erba, Val de Reuil, France).
The samples are then treated, sectioned, stained with hematoxylin, eosin and saffron yellow, and are then examined […]. The tumor necrosis (necrosis±degeneration) is assessed microscopically using a scale of magnitude from 0 to 5:
The values assigned to the tumor necrosis 24 hours after administration of the test compound correspond solely to a necrosis dependent on the product which may be differentiated with certainty from any existing necrosis arising from the experiment.
The necrosis due to the experiment was assessed on an untreated control.
The tumor model is a C51 murine adenocarcinoma. This colon tumor is a grade III mucous colon […]. It is maintained by serial subcutaneous passages every 18 days in female BALB/c mice. The experiments were carried out on female BALB/c mice.

Tubulin = target: T1, Tubulin (Sus scrofa, UniProt P02550+P02554); experiment: Assessment of the inhibition of tubulin polymerization (turbidimetry); type: biochemical, pig; conditions: tubulin 10 μM, turbidity at 350 nm, 37° C.
T1 construct: Tubulin is purified from pig brains according to the published methods; from tissue; host or cells: pig brain
T1 sequence (P02550 whole entry): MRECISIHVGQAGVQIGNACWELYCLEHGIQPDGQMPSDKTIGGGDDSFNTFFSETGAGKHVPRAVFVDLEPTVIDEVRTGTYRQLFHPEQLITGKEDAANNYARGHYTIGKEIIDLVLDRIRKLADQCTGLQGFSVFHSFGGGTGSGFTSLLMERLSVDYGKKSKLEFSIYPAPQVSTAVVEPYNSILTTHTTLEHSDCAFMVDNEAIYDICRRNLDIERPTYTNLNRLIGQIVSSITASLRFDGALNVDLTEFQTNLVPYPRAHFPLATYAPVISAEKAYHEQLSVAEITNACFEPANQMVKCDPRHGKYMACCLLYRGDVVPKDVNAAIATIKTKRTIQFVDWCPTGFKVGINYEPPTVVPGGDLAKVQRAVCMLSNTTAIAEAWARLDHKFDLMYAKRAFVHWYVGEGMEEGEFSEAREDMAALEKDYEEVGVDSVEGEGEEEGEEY
T1 sequence (P02554 whole entry): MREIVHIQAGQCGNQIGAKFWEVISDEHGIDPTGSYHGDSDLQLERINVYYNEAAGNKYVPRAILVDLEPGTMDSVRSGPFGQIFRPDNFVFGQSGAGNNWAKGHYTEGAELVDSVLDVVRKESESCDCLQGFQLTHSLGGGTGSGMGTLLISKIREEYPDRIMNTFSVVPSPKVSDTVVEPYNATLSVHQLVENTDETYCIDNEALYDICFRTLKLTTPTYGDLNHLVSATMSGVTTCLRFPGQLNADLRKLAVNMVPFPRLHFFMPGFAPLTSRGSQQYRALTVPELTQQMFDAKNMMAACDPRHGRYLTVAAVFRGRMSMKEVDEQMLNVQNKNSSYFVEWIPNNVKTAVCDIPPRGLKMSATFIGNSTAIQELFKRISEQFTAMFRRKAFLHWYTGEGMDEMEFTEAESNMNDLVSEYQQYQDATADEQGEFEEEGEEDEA
Experimental: Tubulin is purified from pig brains according to the published methods (Shelanski et al., 1973, Proc. Natl, Acad. Sci. USA, 70, 765-768. Weingarten et al., 1975, Proc. Natl, Acad. Sci. USA, 72, 1858-1862). Briefly, the brains are ground and centrifuged in an extraction buffer. The tubulin, contained in the extract supernatant, is subjected to two successive cycles of polymerization at 37° C. and depolymerization at 4° C., before being separated from the MAPs (Microtubule Associated Proteins) by chromatography on a phosphocellulose P11 column (Whatman). The tubulin thus isolated is more than 95% pure. It is stored in a buffer known as RB/2 30% glycerol, the composition of which is MES-NaOH [2-(N-morpholino)ethanesulfonic acid] 50 mM, pH 6.8; MgCl2 0.25 mM; EGTA 0.5 mM; 30% glycerol (v/v), GTP (guanosine 5′-triphosphate) 0.2 mM.
The polymerization of the tubulin into microtubules is monitored by turbidimetry as follows; the tubulin is adjusted to a concentration of 10 μM (1 mg/ml) in the RB/2 30% glycerol buffer, to which is added 1 mM GTP and 6 mM MgCl2. The polymerization is initiated by increasing the temperature from 6° C. to 37° C. in a cuvette with a 1 cm optical pathlength, placed in a Uvikon 931 spectrophotometer (Kontron) equipped with a thermostatically-regulated cuvette holder. The increase in the turbidity of the solution is monitored at 350 nm.
The products are dissolved at 10 mM in DMSO and added at variable concentrations (0.5 to 10 μM) to the tubulin solution before polymerization. The IC50 value is defined as the concentration of product which inhibits 50% of the rate of polymerization. A product whose IC50 value is less than or equal to 3 μM is considered as very active.

HDMEC cells = experiment: Detachment effect on HDMEC endothelial cells; type: cell-based, Human; conditions: 1 μM, treatment for two hours
Source text: A test to determine the detachment of endothelial cells was established in order to select the products on the basis of their “in vitro” activity. This test for determining the endothelial cell detachment is characterized in that the endothelial cells, inoculated in plates which are coated at the bottom with a binder, e.g., chosen from gelatin, fibronectin or vitronectin, after culturing, are supplemented with a medium containing the test compound, and the cells are then labeled with a fluorescent substance, the cells which become detached are removed by washing and the fluorescence of the remaining cells is counted in a fluorimeter.
This test consists in measuring the detachment of endothelial cells cultured on substrates based on a binder, e.g., chosen from fibronectin, vitronectin and gelatin. One day after inoculating the cells in plates containing 96 wells, for example, the culture medium is replaced with a medium containing the test compound in the absence of serum. The same preparation is prepared six times at three different concentrations ([…]) and the control without addition of antivascular product is prepared six times. After treatment for two hours with the test substance, the cells are labeled with calcein-AM (1.6 μg/ml) in a culture medium supplemented with 0.1% BSA. The cells which become detached are removed by washing with the culture medium containing 0.1% bovine serum albumin; 100 μl of medium are added to each well. The fluorescence of the remaining cells is counted in a fluorimeter. The data obtained are expressed relative to the control (untreated cells).
(§1) The assessment of the detachment of the endothelial cells in vitro is determined in the following way. HDMEC cells (Human Dermal Microvascular Endothelial Cells, Promocell, c-122102) are cultured in an ECGM-MV medium containing 5% fetal calf serum, growth factors (EGF 10 ng/ml, hydrocortisone 1 μg/ml, 0.4% growth supplement with heparin) and antibiotics (amphotericin 50 ng/ml, gentamicin 50 μg/ml). For the detachment test, the HDMECs are inoculated at a rate of 5 000 cells in clear-bottomed 96-well plates (Costar) precoated with fibronectin (10 μg/ml) or vitronectin (1 μg/ml) or gelatin. Twenty-four hours later, the culture medium is replaced with 0.1% BSA ECGM-MV medium containing the indicated products. The test concentrations are 0.1-0.3 and 1 μM for each product. After treatment for two hours, the cells are labeled for 1 hour with calcein (1.6 μg/ml, Molecular Probes) in 0.1% BSA ECGM-MV medium. The detached cells are then removed by washing with 0.1% BSA ECGM-MV medium; 100 μl of medium are added to each well. The fluorescence of the cells which remain attached to the substratum of the well is counted using a fluorimeter, Spectrafluor Plus (Tecan, excitation at 485 nm, and emission at 535 nm). The data are the average of six different samples and are expressed as a percentage of the control (untreated cells).
A cell detachment effect of greater than or equal to 15% is considered as significant.
as §1, with “(amphotericine” for “(amphotericin”, “The detached cells are then removed by washing with 0.1% BSA ECGM-MV medium; 100 μl of medium are added to each well. The fluorescence of the cells which remain attached to the substratum of the well is counted using a fluorimeter, Spectrafluor Plus (Tecan, excitation at 485 nm, and emission at 535 nm). The data are the average of six different samples and are expressed as a percentage of the control (untreated cells).” left out

HDMEC = experiment: Inhibition of cell proliferation, HDMEC; type: cell-based; conditions: Homo sapiens

SMILES	C51 colon tumor necrosis in vivo (grade) ([1]; 25 mg/kg)	IC50 (Tubulin)	Percentage of detachment of HDMEC cells induced with the compound at a concentration of 1 μM (HDMEC cells)	IC50 (HDMEC)	melting point	C51 colon tumor necrosis in vivo (grade) ([1]; 50 mg/kg)
COc1ccc(/C=C(\C)C(=O)c2cc(OC)c(OC)c(OC)c2)cc1NC(=O)CN [Example 14, Aminoacetic acid {2-methoxy-5-[2-methyl-3-oxo-3-(3,4,5-trimethoxyphenyl)propenyl]phenyl}amide hydrochloride]	Grade 5 at 25 (5=large, >75%)	25000 nM	36%	10 nM		
COc1cc(C(=O)/C(C)=C/c2ccc3c(ccn3CCN(C)C)c2)cc2c1OCO2 [Example 18, E-2-Methyl-3-[1-(2-dimethylaminoethyl)-1-H-indol-5-yl]-1-(3-methoxy-4,5-methylenedioxyphenyl)propenone]		2000 nM			118 °C	
COc1ccc(C=C(C)C(=O)c2cc(OC)c(OC)c(OC)c2)cc1NC(=O)[C@@H](N)CCCCN.Cl.Cl [Example 10, (S)-2,6-Diaminohexanoic acid {2-methoxy-5-[2-methyl-3-oxo-3-(3,4,5-trimethoxyphenyl)propenyl]-phenyl}amide dihydrochloride]	Grade 5 at 25 (5=large, >75%)		36%	207 to 225 nM		
COc1cc(C(=O)/C(C)=C/c2ccc3c(c2)CCN3C)cc(OC)c1OC [Example 6, E-2-Methyl-3-(1-methyl-2,3-dihydro-1-H-indol-5-yl)-1-(3,4,5-trimethoxyphenyl)propenone]		800 nM	28%	17 to 20 nM		Grade 5 at 50 (5=large, >75%)
COc1cc(C(=O)/C(C)=C/c2ccc3[nH]ccc3c2)cc2c1OCO2 [Example 17, E-2-Methyl-3-(1-H-indol-5-yl)-1-(3-methoxy-4,5-methylenedioxyphenyl)propenone]		800 nM			140 °C	

From US20030153611A1, “1,3-Diarylprop-2-en-1-ones, compositions containing them and use thereof” (AVENTIS PHARMA S.A., priority 2001, published 2003)
